# Reference: ChEMBL document CHEMBL1149644, “alpha,alpha-Cyclic aminoacids as useful scaffolds for the preparation of hNK(2) receptor antagonists” (Bioorg Med Chem Lett, 2007)
# pKi: −log10 of the molar value.
# Assays:
# [1] = molecular target: T1, Substance-K receptor (Homo sapiens, UniProt P21452); assay: Displacement of [125I]NKA from human NK2 expressed in CHO-K1 cells; format: cell-based
# T1 sequence (P21452 whole entry): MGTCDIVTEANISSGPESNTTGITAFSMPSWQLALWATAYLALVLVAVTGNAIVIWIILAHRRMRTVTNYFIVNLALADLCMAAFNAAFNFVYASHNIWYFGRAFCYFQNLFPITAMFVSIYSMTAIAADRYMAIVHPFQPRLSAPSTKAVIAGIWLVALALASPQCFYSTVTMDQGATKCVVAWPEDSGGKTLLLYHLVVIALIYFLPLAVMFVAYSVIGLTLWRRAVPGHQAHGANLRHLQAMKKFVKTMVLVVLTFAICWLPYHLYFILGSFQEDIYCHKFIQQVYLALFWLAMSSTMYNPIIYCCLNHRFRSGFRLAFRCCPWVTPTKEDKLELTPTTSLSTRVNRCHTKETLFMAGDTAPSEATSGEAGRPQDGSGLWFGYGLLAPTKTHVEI
# [2] = molecular target: T2, Substance-K receptor (Cavia porcellus, UniProt Q64077); assay: […] activity at NK2 receptor in guinea pig smooth muscle; format: functional
# T2 sequence (Q64077 whole entry): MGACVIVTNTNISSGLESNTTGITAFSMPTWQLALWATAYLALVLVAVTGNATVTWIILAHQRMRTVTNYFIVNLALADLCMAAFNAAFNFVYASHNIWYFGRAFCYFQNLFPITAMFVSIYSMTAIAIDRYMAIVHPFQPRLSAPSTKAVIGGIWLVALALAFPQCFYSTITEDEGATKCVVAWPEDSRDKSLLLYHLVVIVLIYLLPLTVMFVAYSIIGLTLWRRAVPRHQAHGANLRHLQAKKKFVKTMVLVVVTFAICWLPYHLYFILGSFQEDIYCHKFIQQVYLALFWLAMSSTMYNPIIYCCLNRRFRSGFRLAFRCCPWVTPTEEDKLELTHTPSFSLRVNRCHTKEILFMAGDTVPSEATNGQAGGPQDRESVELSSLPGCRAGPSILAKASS
# [3] = Solubility at pH 7.4; format: physicochemical; conditions: buffer
# [4] = Metabolic stability in guinea pig liver S9 fraction after 30 mins; format: ADME, subcellular, Cavia porcellus; conditions: read-out: Stability
Compound,pKi [1],other results
NCc1ccc(CNC(=O)[C@H](Cc2ccccc2)NC(=O)C2(NC(=O)c3cc4ccccc4s3)CCCCC2)cc1,6.90,
CN1CCN(CCCNC(=O)[C@@H](Cc2ccccc2)NC(=O)C2(NC(=O)c3cc4ccccc4s3)CCCC2)CC1,8.70,
NCCOCCOCCNC(=O)[C@H](Cc1ccccc1)NC(=O)CNC(=O)c1cc2ccccc2s1,< 5.00,
O=C(NC1(C(=O)NC(Cc2ccccc2)C(=O)NCCN2CCOCC2)CCCCC1)c1cc2ccccc2s1 (stereo unspecified),7.00,
O=C(NC1(C(=O)N[C@H](Cc2ccccc2)C(=O)NCCCN2CCOCC2)CCc2ccccc21)c1cc2ccccc2s1 (stereo in doubt; 47a),7.00,
CC(C)C[C@@H](NC(=O)[C@@H](Cc1ccccc1)NC(=O)C1(NC(=O)c2cc3ccccc3s2)CCCCC1)C(N)=O,7.30,
CCN(CC)CCNC(=O)C(Cc1ccccc1)NC(=O)C1(NC(=O)c2cc3ccccc3s2)CCCCC1 (stereo unspecified),7.00,
NCCCCCCCCNC(=O)C(Cc1ccccc1)NC(=O)C1(NC(=O)c2cc3ccccc3s2)CCCCC1 (stereo unspecified),6.90,
O=C(NC1(C(=O)N[C@H](Cc2ccccc2)C(=O)NCCCN2CCOCC2)CCCCC1)c1cc2ccccc2s1,,pKi [2]: 7.00
O=C(NC1(C(=O)N[C@H](Cc2ccccc2)C(=O)NCCCN2CCOCC2)CCc2ccccc21)c1cc2ccccc2s1 (stereo in doubt; 47b),8.70,pKi [2]: 7.70
NCCCCCNC(=O)[C@H](Cc1ccccc1)NC(=O)C1(NC(=O)c2cc3ccccc3s2)CCCCC1,6.40,
O=C(NC1(C(=O)N[C@H](Cc2ccccc2)C(=O)NCCCN2CCOCC2)CCCC1)c1cc2ccccc2s1,,solubility [3]: 100 µg/mL; remaining at 0.5 h [4]: 4%
CCC(CC)(NC(=O)c1cc2ccccc2s1)C(=O)N[C@@H](Cc1ccccc1)C(=O)NCCOCCOCCN,< 6.00,
NCCOCCOCCNC(=O)[C@H](Cc1ccccc1)NC(=O)C1(NC(=O)c2cc3ccccc3s2)CCCC1,7.30,
CC(C)N(CCNC(=O)C(Cc1ccccc1)NC(=O)C1(NC(=O)c2cc3ccccc3s2)CCCCC1)C(C)C (stereo unspecified),7.50,
NCCCCCCCNC(=O)C(Cc1ccccc1)NC(=O)C1(NC(=O)c2cc3ccccc3s2)CCCCC1 (stereo unspecified),7.00,
O=C(NC1(C(=O)NC(Cc2ccccc2)C(=O)NCCN2CCCCC2)CCCCC1)c1cc2ccccc2s1 (stereo unspecified),7.20,
O=C(NC1(C(=O)N[C@H](Cc2ccccc2)C(=O)NCCCN2CCCC2)CCCCC1)c1cc2ccccc2s1,8.40,pKi [2]: < 6.00
CC1CCCCN1CCCNC(=O)[C@@H](Cc1ccccc1)NC(=O)C1(NC(=O)c2cc3ccccc3s2)CCCCC1 (stereo partly specified),9.40,pKi [2]: 6.70
CC(C)(NC(=O)c1cc2ccccc2s1)C(=O)N[C@@H](Cc1ccccc1)C(=O)NCCOCCOCCN,7.00,
CN1CCN(CCCNC(=O)[C@@H](Cc2ccccc2)NC(=O)C2(NC(=O)c3cc4ccccc4s3)CCc3ccccc32)CC1 (stereo in doubt; 48b),9.00,pKi [2]: 7.60
O=C(NC1(C(=O)N[C@@H](Cc2ccccc2)C(=O)NCCCN2CCOCC2)CCCCC1)c1cc2ccccc2s1,7.60,
CC(C)C[C@@H](NC(=O)[C@H](Cc1ccccc1)NC(=O)C1(NC(=O)c2cc3ccccc3s2)CCCCC1)C(N)=O,7.15,
O=C(NC1(C(=O)N[C@@H](Cc2ccccc2)C(=O)NC2CC2)CCCCC1)c1cc2ccccc2s1,6.50,
NCCOCCOCCNC(=O)[C@H](Cc1ccccc1)NC(=O)C1(NC(=O)c2cc3ccccc3s2)CCCCC1,7.90,
O=C(NC1(C(=O)N[C@H](Cc2ccccc2)C(=O)NCCCN2CCCC2)CCc2ccccc21)c1cc2ccccc2s1 (stereo in doubt; 46a),8.20,
CCCCN(CCCC)CCCNC(=O)[C@@H](Cc1ccccc1)NC(=O)C1(NC(=O)c2cc3ccccc3s2)CCCCC1,,pKi [2]: 6.70
CN1CCN(CCCNC(=O)[C@@H](Cc2ccccc2)NC(=O)C2(NC(=O)c3cc4ccccc4s3)CCCCC2)CC1,8.40,
CN1CCN(CCCNC(=O)[C@@H](Cc2ccccc2)NC(=O)C2(NC(=O)c3cc4ccccc4s3)Cc3ccccc3C2)CC1,8.60,pKi [2]: 6.90

# Further lines, with some results ahead:
pKi [1],Compound,other results
8.80,CCCCN(CCCC)CCCNC(=O)[C@@H](Cc1ccccc1)NC(=O)C1(NC(=O)c2cc3ccccc3s2)CCc2ccccc21 (stereo in doubt; 45b),
7.70,NCCOCCOCCNC(=O)[C@H](Cc1ccccc1)NC(=O)C1(NC(=O)c2cc3ccccc3s2)Cc2ccccc2C1,
7.50,CCCCN(CCCC)CCCNC(=O)[C@@H](Cc1ccccc1)NC(=O)C1(NC(=O)c2cc3ccccc3s2)CCc2ccccc21 (stereo in doubt; 45a),
8.80,CCCCN(CCCC)CCCNC(=O)[C@@H](Cc1ccccc1)NC(=O)C1(NC(=O)c2cc3ccccc3s2)Cc2ccccc2C1,pKi [2]: 6.70
< 7.00,CN1CCN(CCCNC(=O)[C@@H](Cc2ccccc2)NC(=O)C2(NC(=O)c3cc4ccccc4s3)CCc3ccccc32)CC1 (stereo in doubt; 48a),
7.30,CN1CCCC1CCCNC(=O)C(Cc1ccccc1)NC(=O)C1(NC(=O)c2cc3ccccc3s2)CCCCC1 (stereo unspecified),
7.00,CCN(CC)CCCNC(=O)C(Cc1ccccc1)NC(=O)C1(NC(=O)c2cc3ccccc3s2)CCCCC1 (stereo unspecified),
7.00,CN1CCN(CCCNC(=O)[C@H](Cc2ccccc2)NC(=O)C2(NC(=O)c3cc4ccccc4s3)CCCCC2)CC1,
6.60,NCCCCCCNC(=O)C(Cc1ccccc1)NC(=O)C1(NC(=O)c2cc3ccccc3s2)CCCCC1 (stereo unspecified),pKi [2]: < 6.00
8.90,O=C(NC1(C(=O)N[C@H](Cc2ccccc2)C(=O)NCCCN2CCCC2)CCc2ccccc21)c1cc2ccccc2s1 (stereo in doubt; 46b),
6.50,CN(C)CCCNC(=O)[C@H](Cc1ccccc1)NC(=O)C1(NC(=O)c2cc3ccccc3s2)CCCCC1,
6.40,NCCOCCOCCNC(=O)[C@H](Cc1ccccc1)NC(=O)C1(NC(=O)c2cc3ccccc3s2)CCc2ccccc2C1 (stereo partly specified),
8.10,CC1CCCCN1CCCNC(=O)[C@H](Cc1ccccc1)NC(=O)C1(NC(=O)c2cc3ccccc3s2)CCCCC1 (stereo partly specified),pKi [2]: < 5.50
6.50,CC(C)C[C@H](NC(=O)[C@@H](Cc1ccccc1)NC(=O)C1(NC(=O)c2cc3ccccc3s2)CCCCC1)C(N)=O,
8.20,CCCCN(CCCC)CCCNC(=O)[C@H](Cc1ccccc1)NC(=O)C1(NC(=O)c2cc3ccccc3s2)CCCCC1,
8.90,O=C(NC1(C(=O)N[C@H](Cc2ccccc2)C(=O)NCCCN2CCCC2)Cc2ccccc2C1)c1cc2ccccc2s1,pKi [2]: 6.70
5.00,CC(C)C[C@H](NC(=O)[C@H](Cc1ccccc1)NC(=O)C1(NC(=O)c2cc3ccccc3s2)CCCCC1)C(N)=O,
7.90,NCCOCCOCCNC(=O)[C@H](Cc1ccccc1)NC(=O)C1(NC(=O)c2cc3ccccc3s2)CCc2ccccc21 (stereo partly specified),
7.70,O=C(NC1(C(=O)N[C@@H](Cc2ccccc2)C(=O)NCCCN2CCCC2)CCCCC1)c1cc2ccccc2s1,
7.40,CCN(CC)CCCNC(=O)[C@H](Cc1ccccc1)NC(=O)C1(NC(=O)c2cc3ccccc3s2)CCCCC1,
8.70,O=C(NC1(C(=O)N[C@H](Cc2ccccc2)C(=O)NCCCN2CCOCC2)Cc2ccccc2C1)c1cc2ccccc2s1,pKi [2]: 7.00
